From ChEMBL document CHEMBL1201862, “PubChem BioAssay data set” (2004)
Blank lines part the entries; values can stand above or below the molecule they belong to. Calls of active or inactive are those of the source. Cut-off read from the data, not from the text of the source, for most assays here: actives have a measured AC50 and inactives only a lower limit.

Assays:
[1] = molecular target: T1, RNA-editing ligase 1, mitochondrial (Trypanosoma brucei brucei, UniProt P86926); assay: inhibition of trypanosome RNA editing ligase – biochemical, fluorescence, Trypanosoma brucei, dose response (AID 1117295); format: functional
T1 sequence (P86926 whole entry): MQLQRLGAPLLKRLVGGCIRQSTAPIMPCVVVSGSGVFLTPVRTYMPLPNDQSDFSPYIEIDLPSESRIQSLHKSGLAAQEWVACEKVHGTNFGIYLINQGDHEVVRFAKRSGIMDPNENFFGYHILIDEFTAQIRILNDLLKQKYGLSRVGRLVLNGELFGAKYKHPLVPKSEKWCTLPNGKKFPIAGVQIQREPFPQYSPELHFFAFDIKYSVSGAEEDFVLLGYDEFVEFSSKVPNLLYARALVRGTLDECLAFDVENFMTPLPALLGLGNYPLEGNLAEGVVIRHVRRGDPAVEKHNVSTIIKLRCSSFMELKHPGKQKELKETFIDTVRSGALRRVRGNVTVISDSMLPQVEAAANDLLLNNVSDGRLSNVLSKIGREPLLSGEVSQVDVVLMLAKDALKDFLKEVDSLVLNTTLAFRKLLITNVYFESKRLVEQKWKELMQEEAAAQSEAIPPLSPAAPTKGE

[2] = toxicity toward HepG2 liver cells – cell-based, plate reader, cherry-pick, antagonist series, cytotoxicity control, dose response (AID 743416); format: functional
[3] = blockade of melanocortin 4 receptor signaling – cell-based, plate reader, cherry pick, counter-screen for LGR2 antagonist project, dose response (AID 743444); format: functional;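 note: transfected HEK 293 cells stimulated with alpha-MSH peptide; potency of inhibitors of the alpha-MSH evoked signal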
[4] = blockers of bursicon-stimulated LGR2 cAMP reporter – cell-based, HEK293, CRE-luciferase reporter, cherry pick, set 2, dose response (AID 743343); format: functional;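 note: transfected cells were stimulated with diluted bursicon conditioned medium after compound addition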
[5] = non-specific 3'UTR reporter inhibition in Clone20-Shn3RL – cell-based, Renilla luciferase, cherry-picked, counter-screen for Shn3 inhibitor project, dose response (AID 624133); format: functional
[6] = reduction of Shn3 3'UTR-driven luciferase in osteoblasts – cell-based, Clone20 osteoblasts, firefly luciferase, cherry-picked, dose response (AID 624132); format: functional;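 note: firefly luciferase luminescence from reporter carrying the Shn3 3'UTR in osteoblasts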
[7] = loss of viability in HepG2 cells – cell-based, CellTiter-Glo, cherry-picked, cytotoxicity control for Shn3 inhibitor project, dose response (AID 624134); format: functional
[8] = A549 cell cytotoxicity, dose response, cytotoxicity control, plate reader, cherry-pick, antagonist series (AID 743412); format: functional, cell-based
[9] = viability loss in HEK293 cells – cell-based, plate reader, cherry-picked samples, cytotoxicity control, dose response (AID 743446); format: functional
HEK293 = assay: viability loss in HEK293T cells – cell-based, ATP luminescence, cherry-pick samples, cytotoxicity control, dose response (AID 687005); format: functional; details: Homo sapiens;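 note: cells exposed to compound for 48 hours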
[10] = HEK293 Cytotoxicity Assay Measured in Cell-Based System Using Plate Reader - 7071-01_Inhibitor_Dose_CherryPick_Activity_Set2.; format: functional
[11] = HIV-1 Vif–A3G interaction blockers – biochemical, TR-FRET, GST-Vif 1-94, biotin-A3G peptide, dose response retest, primary screen (AID 1117319); format: functional;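 note: TR-FRET signal of purified GST-Vif binding a biotinylated A3G peptide; inhibitors lower the FRET signal by blocking Vif and A3G binding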

IC50 [1]: > 96.6 µM (inactive)
Structure (SMILES): COC(=O)C1=C(C)N(Cc2ccccc2C(F)(F)F)C(NCc2cccc(C(F)(F)F)c2)=NC1c1ccc(C(F)(F)F)cc1 (stereo not given)

IC50 [11]: > 100 µM (active)
Structure (SMILES): CCOc1ccc(NC(=O)C2CCCN(S(=O)(=O)c3c(C)n[nH]c3C)C2)cc1 (stereo not given)

IC50 [11]: > 100 µM (active)
Structure (SMILES): Cc1cc(C)nc(N2CCC(C(=O)O)CC2)n1

Second part, the molecule before the results:

Structure (SMILES): CCCCNc1c(-c2ccc(OC)c(SC3CCCCC3)c2)nc2ccc(C)cn12
AC50 [2]: 18.4 µM (active)
AC50 [3]: 9.94 µM (active)
AC50 [4]: 7.85 µM (active)
AC50 [5]: 2.14 µM (active)
AC50 [6]: 3.68 µM (active)
AC50 [7]: 45 µM (active)
AC50 [8]: 22.1 µM (active)
AC50 [9]: 15.5 µM (active)

Structure (SMILES): O=C(Nc1ccc(N2CCN(C(=O)c3ccc(Cl)cc3)CC2)cc1)c1cc2ccccc2o1
AC50 [3]: 28.6 µM (active)
AC50 [4]: 29.4 µM (active)

Structure (SMILES): C[C@@H]1CCCCO[C@H](CN(C)C(=O)Nc2ccc(F)cc2)[C@H](C)CN([C@@H](C)CO)C(=O)c2cc(NS(=O)(=O)c3ccc(Cl)cc3)ccc2O1
AC50 (HEK293): 21.9 µM (active)
AC50 [10]: 21.9 µM (active)
